The target in the experiment is T1, BCL6 (Homo sapiens, UniProt P41182).
T1 construct: endogenous in cells; host or cells: T47D breast cancer epithelial cells
Description: Immunofluorescence protocol for high content imaging of BCL6 (degradation) in T47D cells, 3 days compound treatment. Format: cell-based. The conditions noted are these: for Dmax: read-out: Mean Dmax (%)** category; for DC50: read-out: Mean DC50 (nM)* category. As to the method:
Immunofluorescence Protocol for High Content Imaging of BCL6
T47D cells were seeded in 100 μl volume of RPMI1640-10% FBS in a 96-well black/clear bottom plates for adherent lines (Corning #3904).
Day 1. T47D breast cancer epithelial cells were seeded at a density so that confluence is ˜70-90% at endpoint. Cells were seeded at 7K/0.1 ml/well the morning prior to the addition of exemplary bifunctional degradation compounds.
Day 2. Prepare an 11 point 3-fold serial dilution of exemplary bifunctional compound in DMSO and aliquot an appropriate volume to cell growth media to generate a 2× final concentration of exemplary bifunctional compound. Add an equal volume (0.1 ml) of 2× exemplary bifunctional compound/media mix to previously plated cells, for a final top concentration in aqueous cell growth media of 0.1 or 1 μM. Incubate for 3 days at 37° C., 5% CO2.
Day 5 Immunofluorescence. Discard cell media. Wash wells with 200 μl of room temperature phosphate-buffered saline (PBS). Prepared 4% paraformaldehyde (PFA) from 16% PFA (Electron Microscopy Sciences #15710) using 1×PBS. Fifty μl of 4% PF was added to each well and incubate for 15 minutes at room temperature to fix the cells. The PFA was aspirated and the cells washed twice with PBS (200 μl)).
Prepared 0.1% Triton X-100 in PBS using 10% triton X-100 stock. The cells were permeabilized by adding 100 ul of the 0.1% Triton X-100 in PBS to each well to permeabilize cells and incubating at room temperature for 15 minutes. Cells were washed twice with PBS.
Prepared 3% BSA/PBS (from Thermofisher #37515 Blocker BSA in TBS, 10%), and 100 ul was added to each well. The cells were incubated for at least 1 hour at room temperature.
Prepared 1% BSA/PBS using Blocker BSA/PBS, and the 3% BSA/PBS removed from the wells.
For no primary antibody controls, 50 μl 1% BSA/PBS was added.
Primary antibody (BCL6 Rb Ab, CST-14895, Cell Signaling) was diluted 1:300 in 1% BSA/PBS using Blocker BSA/PBS.
Fifty μl of primary antibody added to all remaining wells (i.e., all wells other than the primary antibody controls) and the cells were incubated overnight at 4° C. with slow orbital movement.
Day 6. Contents of the wells was removed and the cells washed four times with 200 ul PBS. 1% BSA/PBS was prepared using Blocker BSA in PBS.
Diluted secondary antibody goat anti-Rb IgG Alexa-488 1:1000, and cell mask-Alexa-647 1:3000 in 1% BSA/PBS in the same mix. Add 50 μl to each well and incubate at room temperature for 1 hour in the dark.
Cells were washed three times with 200 ul PBS, and then incubated for 10 minutes with 100 ul Hoechst dye at 1 μg/mL (20 mM stock) to stain cell nuclei. Wells were then washed with 200 μl PBS, and 100 ul of PBS was added to each well and the plate covered plate with a plastic opaque cover. Plates were stored at 4° C. and covered in aluminum foil until imaged.
Plates were equilibrated to room temperature prior to reading. The bottom of the plate was wiped with 70% isopropanol immediately prior to imaging.
10×, 4 fields/well, include Top hat smoothing in the analysis protocol.
16% paraformaldehyde: Electron Microscopy Sciences #15710
Hoechst: Thermofisher #62249
Blocker BSA in PBS, 10%: Thermofisher #37515
Blocker BSA in TBS, 10%: Thermofisher #37520
Goat anti-rabbit or mouse AlexaFluor-488: Thermofisher #A11008
Cell mask deep red AlexaFluor-647: Thermofisher #C10046
Wash buffer, PBS: 20×PBS, Thermofisher

Setting [1] is: T47D cells, 3 days compound treatment.

Like-named read-outs stand apart in the source and are kept apart here.

The Dmax is the largest share of the target that was removed. What is called DC50 is the midpoint of the concentration-degradation curve. In the case of `CNC(=O)COc1cc2cc(Nc3nc(N4CCC(O[C@H]5C[C@H](N6CC[C@H](c7ccc8c(c7F)CN([C@H]7CCC(=O)NC7=O)C8=O)C[C@H]6C)C5)CC4)ncc3Cl)ccc2n(C(C)C)c1=O` [Compound 295, 2-({6-[(5-chloro-2-{4-[(1r,3r)-3-[(2R,4S)-4-{2-[(3S)-2,6-dioxopiperidin-3-yl]-4-fluoro-1-oxo-2,3-dihydro-1H-isoindol-5-yl}-2-methylpiperidin-1-yl]cyclobutoxy]piperidin-1-yl}pyrimidin-4-yl)amino]-2-oxo-1-(propan-2-yl)-1,2-dihydroquinolin-3-yl}oxy)-N-methylacetamide], the 50% degradation concentration (DC50) is less than 10 nM. Moreover, where the note is “T47D”, the Dmax is no less than 70%.

Turning to `CNC(=O)COc1cc2cc(Nc3nc(N4CCN(C(C)(C)C5CCN(c6cc7c(cc6F)C(=O)N(C6CCC(=O)NC6=O)C7)CC5)CC4)ncc3Cl)ccc2n(C(C)C)c1=O` (stereo not drawn) [Compound 68, 2-{[6-({5-chloro-2-[4-(2-{1-[2-(2,6-dioxopiperidin-3-yl)-6-fluoro-1-oxo-2,3-dihydro-1H-isoindol-5-yl]piperidin-4-yl}propan-2-yl)piperazin-1-yl]pyrimidin-4-yl}amino)-2-oxo-1-(propan-2-yl)-1,2-dihydroquinolin-3-yl]oxy}-N-methylacetamide], under setting [1], the 50% degradation concentration (DC50) is less than 10 nM and the greatest degradation seen (Dmax) lay in the range of 50 to 70%.

With `CNC(=O)COc1cc2cc(Nc3nc(N4CCC(O[C@H]5C[C@H](N6CCN(c7ccc8c(c7F)CN([C@@H]7CCC(=O)NC7=O)C8=O)CC6)C5)CC4)ncc3Cl)ccc2n(C(C)C)c1=O` [Compound 392, 2-({6-[(5-chloro-2-{4-[(1r,3r)-3-(4-{2-[(3R)-2,6-dioxopiperidin-3-yl]-4-fluoro-1-oxo-2,3-dihydro-1H-isoindol-5-yl}piperazin-1-yl)cyclobutoxy]piperidin-1-yl}pyrimidin-4-yl)amino]-2-oxo-1-(propan-2-yl)-1,2-dihydroquinolin-3-yl}oxy)-N-methylacetamide], the 50% degradation concentration (DC50) is less than 10 nM. The Dmax (T47D) was no less than 70%.

`CNC(=O)COc1cc2cc(Nc3nc(N4CCC(O[C@H]5C[C@H](N6CCN(c7ccc8c(n7)C(C)N(C7CCC(=O)NC7=O)C8=O)[C@@H](C)C6)C5)CC4)ncc3Cl)ccc2n(C(C)C)c1=O` (stereo partly drawn) [Compound 204]: under setting [1], the half-maximal degradation concentration (DC50) was less than 10 nM and the greatest degradation seen (Dmax) is no less than 70%.

As to `CNC(=O)COc1cc2cc(Nc3nc(N4CCC(O[C@H]5C[C@H](N6CCC(c7ccc8c(c7)C(=O)N(C7CCC(=O)NC7=O)C8=O)C(F)(F)C6)C5)CC4)ncc3Cl)ccc2n(C(C)C)c1=O` (stereo partly drawn) [Compound 137, 2-({6-[(5-chloro-2-{4-[(1r,3r)-3-{4-[2-(2,6-dioxopiperidin-3-yl)-1,3-dioxo-2,3-dihydro-1H-isoindol-5-yl]-3,3-difluoropiperidin-1-yl}cyclobutoxy]piperidin-1-yl}pyrimidin-4-yl)amino]-2-oxo-1-(propan-2-yl)-1,2-dihydroquinolin-3-yl}oxy)-N-methylacetamide], under setting [1], the half-maximal degradation concentration (DC50) was no less than 100 nM and the Dmax is no less than 70%.

In the case of `CC(C)n1c(=O)c(OCC(=O)O)cc2cc(Nc3nc(N4CCC(O[C@H]5C[C@H](N6CCC(c7ccc8c(c7F)CN(C7CCC(=O)NC7=O)C8=O)CC6)C5)CC4)ncc3Cl)ccc21` (stereo partly drawn) [Compound 264, 2-({6-[(5-chloro-2-{4-[(1r,3r)-3-{4-[2-(2,6-dioxopiperidin-3-yl)-4-fluoro-1-oxo-2,3-dihydro-1H-isoindol-5-yl]piperidin-1-yl}cyclobutoxy]piperidin-1-yl}pyrimidin-4-yl)amino]-2-oxo-1-(propan-2-yl)-1,2-dihydroquinolin-3-yl}oxy)acetic acid], the DC50 was less than 10 nM. Besides, the Dmax (T47D) was no less than 70%.

For the origin of these results see patent publication US11986532B2 (Arvinas Operations, Inc., priority 2021, dated 2024).
